Activity calls are given as the source filed them.
Key:
Paired box protein Pax-8 = Paired box protein Pax-8 (Homo sapiens, UniProt Q06710); test: PAX8 transcriptional activity inhibition in RMG-I – RMG-I cells, luciferase, cherry-pick, dose response (AID 687027); type: functional, cell-based;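 note: luciferase reporter driven by Pax8 target thyroperoxidase promoter measured by SteadyGlo luminescence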
[1] = tested on: Streptococcus sp. 'group A'; test: Streptococcus pyogenes SK(-)GAS viability under kanamycin – luminescence, BacTiterGlo, confirmation, counter-screen for streptokinase expression inhibitor project, dose response (AID 1900); type: functional, organism-based
[2] = general mammalian cell viability loss – activator set, cherry-pick, cytotoxicity control for miR-122 modulator project, dose response (AID 720690); type: functional, cell-based;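 note: HEK293T human cells scored for general mammalian cytotoxicity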
[3] = molecular target: T1, Histone-lysine N-methyltransferase NSD2 (Homo sapiens, UniProt O96028); type: biochemical
T1 sequence (O96028 whole entry): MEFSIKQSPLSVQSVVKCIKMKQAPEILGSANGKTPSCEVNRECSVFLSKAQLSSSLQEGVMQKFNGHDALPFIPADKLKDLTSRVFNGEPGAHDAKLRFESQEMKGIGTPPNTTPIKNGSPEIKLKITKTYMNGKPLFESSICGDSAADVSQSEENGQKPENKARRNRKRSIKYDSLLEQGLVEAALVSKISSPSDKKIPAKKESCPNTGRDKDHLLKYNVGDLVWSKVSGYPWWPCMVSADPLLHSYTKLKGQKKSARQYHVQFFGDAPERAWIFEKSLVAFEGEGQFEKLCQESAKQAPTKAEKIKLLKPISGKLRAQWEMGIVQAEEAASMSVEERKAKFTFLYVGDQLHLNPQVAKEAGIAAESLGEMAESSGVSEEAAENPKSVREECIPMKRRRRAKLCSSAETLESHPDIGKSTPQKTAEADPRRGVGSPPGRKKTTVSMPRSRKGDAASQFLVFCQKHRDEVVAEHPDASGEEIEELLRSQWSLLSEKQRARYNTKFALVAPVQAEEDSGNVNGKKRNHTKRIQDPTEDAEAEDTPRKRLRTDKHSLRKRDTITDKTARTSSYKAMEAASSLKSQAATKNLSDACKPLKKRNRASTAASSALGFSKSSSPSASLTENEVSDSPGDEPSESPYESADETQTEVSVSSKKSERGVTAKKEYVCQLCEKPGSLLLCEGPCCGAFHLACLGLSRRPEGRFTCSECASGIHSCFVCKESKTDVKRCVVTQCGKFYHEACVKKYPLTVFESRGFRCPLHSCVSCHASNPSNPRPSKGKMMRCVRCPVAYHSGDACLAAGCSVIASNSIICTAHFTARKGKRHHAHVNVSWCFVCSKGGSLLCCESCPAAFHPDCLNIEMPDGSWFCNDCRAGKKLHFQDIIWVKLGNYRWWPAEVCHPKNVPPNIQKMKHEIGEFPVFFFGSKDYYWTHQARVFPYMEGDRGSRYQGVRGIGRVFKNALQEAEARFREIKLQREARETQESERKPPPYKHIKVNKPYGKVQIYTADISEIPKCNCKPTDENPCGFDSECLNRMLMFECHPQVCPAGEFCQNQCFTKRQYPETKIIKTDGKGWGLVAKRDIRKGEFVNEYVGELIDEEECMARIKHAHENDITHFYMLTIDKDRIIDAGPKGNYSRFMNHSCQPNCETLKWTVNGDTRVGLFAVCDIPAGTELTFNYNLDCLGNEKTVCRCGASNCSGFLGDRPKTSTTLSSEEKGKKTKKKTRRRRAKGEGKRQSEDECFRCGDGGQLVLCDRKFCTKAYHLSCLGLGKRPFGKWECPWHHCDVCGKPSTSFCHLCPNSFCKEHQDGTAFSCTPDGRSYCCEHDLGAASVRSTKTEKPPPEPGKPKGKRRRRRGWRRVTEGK

[4] = molecular target: T2, Replicative DNA helicase DnaB (Mycobacterium tuberculosis, UniProt P9WMR3); test: DnaB intein splicing inhibitors, dose response, biochemical, cell-free fluorescence (AID 449749); type: functional
T2 sequence (P9WMR3 whole entry): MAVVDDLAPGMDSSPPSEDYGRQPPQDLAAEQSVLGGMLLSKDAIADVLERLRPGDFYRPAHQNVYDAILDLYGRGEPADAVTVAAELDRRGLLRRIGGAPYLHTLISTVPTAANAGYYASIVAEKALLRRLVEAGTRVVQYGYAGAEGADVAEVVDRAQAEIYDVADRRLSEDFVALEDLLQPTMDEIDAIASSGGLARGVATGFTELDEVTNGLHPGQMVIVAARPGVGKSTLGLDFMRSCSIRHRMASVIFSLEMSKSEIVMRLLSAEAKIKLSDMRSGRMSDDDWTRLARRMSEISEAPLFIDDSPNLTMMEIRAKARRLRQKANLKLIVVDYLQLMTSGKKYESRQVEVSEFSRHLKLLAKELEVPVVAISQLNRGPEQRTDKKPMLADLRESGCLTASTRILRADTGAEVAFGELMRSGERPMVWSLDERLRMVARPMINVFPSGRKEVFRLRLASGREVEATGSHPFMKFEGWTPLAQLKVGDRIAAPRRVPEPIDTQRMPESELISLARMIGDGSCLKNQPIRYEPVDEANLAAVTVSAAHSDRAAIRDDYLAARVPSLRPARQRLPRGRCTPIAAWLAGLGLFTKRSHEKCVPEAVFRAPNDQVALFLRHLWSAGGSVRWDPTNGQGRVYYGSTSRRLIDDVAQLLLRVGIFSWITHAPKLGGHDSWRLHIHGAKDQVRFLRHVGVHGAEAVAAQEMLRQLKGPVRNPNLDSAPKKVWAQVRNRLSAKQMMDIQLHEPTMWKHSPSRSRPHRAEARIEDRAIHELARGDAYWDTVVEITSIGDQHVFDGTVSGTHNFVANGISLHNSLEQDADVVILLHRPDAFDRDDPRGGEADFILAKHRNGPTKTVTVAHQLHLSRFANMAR

[5] = molecular target: Apoptotic protease-activating factor 1 (Homo sapiens, UniProt O14727); type: functional
[6] = molecular target: T3, Sentrin-specific protease 8 (Homo sapiens, UniProt Q96LD8); type: functional
T3 sequence (Q96LD8 whole entry): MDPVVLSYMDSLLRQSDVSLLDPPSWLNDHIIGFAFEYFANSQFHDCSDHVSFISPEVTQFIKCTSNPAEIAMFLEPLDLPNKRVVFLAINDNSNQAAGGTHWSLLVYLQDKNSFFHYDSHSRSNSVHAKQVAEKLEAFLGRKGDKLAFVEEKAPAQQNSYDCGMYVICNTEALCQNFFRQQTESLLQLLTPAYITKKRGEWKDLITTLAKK

SUMO-activating enzyme = SUMO-activating enzyme (Homo sapiens, UniProt Q9UBT2); test: blockers of UBC9-mediated SUMO conjugation – biochemical, AlphaScreen, SUMOylation inhibitor project, confirmation (AID 2018); type: functional
cells = type: functional, cell-based
Albumin = Albumin (Bos taurus, UniProt P02769); test: Counterscreen for inhibitors of T-cell receptor (TCR)-CD3 interaction: Fluorescence-based biochemical high throughput dose response assay to identify inhibitors of T-cell receptor (TCR)-CD3 interaction using a TAMRA-labeled BSA probe.; type: functional
Albumin, sequence (P02769 whole entry): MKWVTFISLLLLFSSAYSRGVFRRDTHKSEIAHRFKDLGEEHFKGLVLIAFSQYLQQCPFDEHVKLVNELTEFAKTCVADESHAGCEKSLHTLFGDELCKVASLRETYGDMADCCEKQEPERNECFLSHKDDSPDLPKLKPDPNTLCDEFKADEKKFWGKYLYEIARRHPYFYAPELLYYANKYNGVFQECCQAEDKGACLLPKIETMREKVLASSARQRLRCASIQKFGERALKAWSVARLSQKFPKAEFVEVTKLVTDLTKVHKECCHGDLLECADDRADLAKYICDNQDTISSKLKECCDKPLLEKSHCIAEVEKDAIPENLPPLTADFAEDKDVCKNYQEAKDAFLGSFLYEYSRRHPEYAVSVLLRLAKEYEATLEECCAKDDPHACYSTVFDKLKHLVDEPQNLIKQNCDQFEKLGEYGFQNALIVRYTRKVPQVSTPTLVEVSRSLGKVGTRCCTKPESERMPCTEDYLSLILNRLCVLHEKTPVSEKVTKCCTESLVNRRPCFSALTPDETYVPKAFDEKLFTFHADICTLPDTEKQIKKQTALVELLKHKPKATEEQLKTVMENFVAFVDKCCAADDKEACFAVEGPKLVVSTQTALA

SUMO-activating enzyme, sequence (Q9UBE0 whole entry): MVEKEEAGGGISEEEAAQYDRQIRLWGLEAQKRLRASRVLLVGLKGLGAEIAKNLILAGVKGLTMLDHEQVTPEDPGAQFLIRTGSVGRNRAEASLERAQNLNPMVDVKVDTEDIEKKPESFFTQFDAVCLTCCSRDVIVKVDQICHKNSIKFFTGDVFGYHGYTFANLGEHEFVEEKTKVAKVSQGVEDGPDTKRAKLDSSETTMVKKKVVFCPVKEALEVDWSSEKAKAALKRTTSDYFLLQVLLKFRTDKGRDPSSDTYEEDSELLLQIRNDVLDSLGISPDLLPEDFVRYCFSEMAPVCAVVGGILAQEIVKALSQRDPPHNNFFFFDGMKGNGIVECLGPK
SUMO-activating enzyme, sequence (Q9UBT2 whole entry): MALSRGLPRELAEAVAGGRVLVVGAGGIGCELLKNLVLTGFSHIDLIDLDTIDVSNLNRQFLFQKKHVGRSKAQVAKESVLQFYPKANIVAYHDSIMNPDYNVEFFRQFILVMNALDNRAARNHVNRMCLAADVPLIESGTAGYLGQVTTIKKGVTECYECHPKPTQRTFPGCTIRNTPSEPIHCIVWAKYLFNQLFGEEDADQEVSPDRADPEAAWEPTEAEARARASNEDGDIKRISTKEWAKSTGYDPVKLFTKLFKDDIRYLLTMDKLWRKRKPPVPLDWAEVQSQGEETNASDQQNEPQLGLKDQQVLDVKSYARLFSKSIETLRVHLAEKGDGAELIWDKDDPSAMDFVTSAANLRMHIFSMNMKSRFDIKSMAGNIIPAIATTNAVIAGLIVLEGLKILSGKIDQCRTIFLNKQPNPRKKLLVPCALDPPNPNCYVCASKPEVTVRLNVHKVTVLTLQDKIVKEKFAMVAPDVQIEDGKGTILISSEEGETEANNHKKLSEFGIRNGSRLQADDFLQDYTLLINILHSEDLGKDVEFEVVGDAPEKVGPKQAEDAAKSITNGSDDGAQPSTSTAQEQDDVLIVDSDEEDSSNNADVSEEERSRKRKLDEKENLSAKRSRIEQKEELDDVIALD
Paired box protein Pax-8, sequence (Q06710 whole entry): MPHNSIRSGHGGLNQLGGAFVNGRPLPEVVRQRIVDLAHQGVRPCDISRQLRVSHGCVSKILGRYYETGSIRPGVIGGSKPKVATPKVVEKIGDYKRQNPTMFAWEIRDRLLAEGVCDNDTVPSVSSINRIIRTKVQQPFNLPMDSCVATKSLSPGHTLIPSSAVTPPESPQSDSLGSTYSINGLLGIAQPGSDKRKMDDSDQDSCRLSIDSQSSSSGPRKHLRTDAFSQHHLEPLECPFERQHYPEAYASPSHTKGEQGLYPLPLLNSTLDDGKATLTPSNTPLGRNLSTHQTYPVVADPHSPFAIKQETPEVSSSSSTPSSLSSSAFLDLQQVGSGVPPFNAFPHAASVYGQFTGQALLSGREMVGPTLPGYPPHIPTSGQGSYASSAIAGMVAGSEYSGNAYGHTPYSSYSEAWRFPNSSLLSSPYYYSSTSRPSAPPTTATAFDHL
Apoptotic protease-activating factor 1, sequence (O14727 whole entry): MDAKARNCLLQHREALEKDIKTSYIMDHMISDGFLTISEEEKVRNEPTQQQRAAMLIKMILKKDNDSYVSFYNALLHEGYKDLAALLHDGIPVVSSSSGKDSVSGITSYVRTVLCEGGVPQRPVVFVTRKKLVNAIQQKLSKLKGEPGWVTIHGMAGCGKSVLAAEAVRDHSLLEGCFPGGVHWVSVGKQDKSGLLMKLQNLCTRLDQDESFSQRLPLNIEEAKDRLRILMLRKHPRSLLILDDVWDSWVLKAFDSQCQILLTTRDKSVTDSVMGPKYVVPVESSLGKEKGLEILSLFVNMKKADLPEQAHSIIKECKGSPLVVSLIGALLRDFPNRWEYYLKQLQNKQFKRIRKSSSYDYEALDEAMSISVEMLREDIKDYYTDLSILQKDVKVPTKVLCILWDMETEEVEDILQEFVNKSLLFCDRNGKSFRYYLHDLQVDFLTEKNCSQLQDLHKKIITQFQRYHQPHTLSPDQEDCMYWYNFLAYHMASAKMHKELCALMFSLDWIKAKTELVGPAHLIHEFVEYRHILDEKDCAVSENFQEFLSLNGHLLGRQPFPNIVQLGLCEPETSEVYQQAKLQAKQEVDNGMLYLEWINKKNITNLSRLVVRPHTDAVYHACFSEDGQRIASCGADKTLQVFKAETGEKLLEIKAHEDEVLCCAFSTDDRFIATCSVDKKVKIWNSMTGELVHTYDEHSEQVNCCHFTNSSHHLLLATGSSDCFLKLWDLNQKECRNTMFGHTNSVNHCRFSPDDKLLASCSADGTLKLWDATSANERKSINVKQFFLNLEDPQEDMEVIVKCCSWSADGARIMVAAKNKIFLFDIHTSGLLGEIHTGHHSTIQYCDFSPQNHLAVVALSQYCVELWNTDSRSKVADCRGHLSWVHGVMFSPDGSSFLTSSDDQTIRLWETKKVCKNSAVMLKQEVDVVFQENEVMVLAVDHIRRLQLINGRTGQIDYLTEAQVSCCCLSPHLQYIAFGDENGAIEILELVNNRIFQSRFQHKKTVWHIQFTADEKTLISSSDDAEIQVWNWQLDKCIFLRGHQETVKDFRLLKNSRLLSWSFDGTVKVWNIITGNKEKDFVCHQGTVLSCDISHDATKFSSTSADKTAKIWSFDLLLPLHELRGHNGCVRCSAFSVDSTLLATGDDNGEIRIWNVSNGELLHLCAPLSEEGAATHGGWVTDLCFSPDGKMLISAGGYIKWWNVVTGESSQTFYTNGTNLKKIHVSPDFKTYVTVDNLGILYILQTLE

## O=C(Nc1cccc(NC(=O)c2ccccc2Cl)c1)c1ccc([N+](=O)[O-])o1
Paired box protein Pax-8
  AC50: 2.48 µM (active)
[1]
  EC50: 4.47 µM (active)

## COc1ccc(CC2=CC(=O)c3ccccc3C2=O)cc1
[2]
  AC50: 5.27 µM (active)
[3]
  AC50: 10.5 µM (active)
[4]
  AC50: 7.49 µM (active)
[1]
  EC50: 11.4 µM (active)

## c1coc(-c2nnc(-c3ccco3)nn2)c1
[5]
  IC50: 15.8 µM (active)
[3]
  AC50: 5.23 µM (active)
[4]
  AC50: 5.79 µM (active)
[6]
  IC50: 9.28 µM (active)
SUMO-activating enzyme
  IC50: 0.99 µM (active)

## Cn1c(O)c(/C=N/NC(=O)c2cc3ccccc3cc2O)c2ccccc21
cells
  EC50: 4.07 µM (active)
Albumin
  IC50: > 94.1 µM (inactive)
